Results: US11458189B2, “Cytoprotective drugs” (BALMES TRANSPLANTATION, priority 2017, dated 2022)
Starred links: 1 amine or outer side, 2 acyl side, 3 side chain; linkers in the order of their positions; H or OH if unused. Positions of bridges follow the written chain, without caps; N, C: chain ends. Non-standard residues stand in square brackets, D forms with d. Residues, ends and D or L forms follow the SMILES beside them. *: point of attachment. hTyr(3S-OH,4S-OH,3'-OSO3H) = N[C@H](C(=O)O)[C@H](O)[C@@H](O)c1ccc(O)c(OS(=O)(=O)O)c1; Orn(4R-OH,5R-OH) = O=C([C@H](C[C@@H](O)[C@@H](O)N[*:3])N[*:1])[*:2]; Pro(3S-OH,4S-Me) = C[C@H]1CN[C@H](C(=O)O)[C@H]1O; X1 = CCCCCOc1ccc(-c2cc(-c3ccc(C(=O)*)cc3)no2)cc1; Gln(3R-OH) = NC(=O)C[C@@H](O)[C@H](N)C(=O)O; Hyp = O=C(O)[C@@H]1C[C@@H](O)CN1

System: Human Cardiac Microvascular Endothelial Cells (HCMEC)
Experiment: Oxygen and glucose deprivation followed by replenishment, cell survival (calcein AM), HCMEC
Assay type: cell-based
Description: Anidulafungin and micafungin were tested on Human Renal Glomerular Endothelial Cells (HRGEC, Innoprot P10665), on Human Renal Proximal Tubular Epithelial Cells (HRPTEpiC, Innoprot P10662), on Human Astrocytes (HA, caltag SC-1800), on Human Cardiac Microvascular Endothelial Cells (HCMEC, Caltag SC-6000), on Human Hepatic Sinusoidal Endothelial Cells (HHSEC, Caltag SC-5000), on Rat Primary Kidney Glomerular Endothelial cells (Cellbiologics, RN-6014G) and on Bovine Brain Microvascular Endothelial Cells (BBMEC, Caltag SC-B100).
In a first phase, these isolated, purified and cryopreserved cells are thawed and multiplied according to the supplier's recommendations in T75 or T175 flasks pre-coated with 2 μg of fibronectin/[…] (CORNING) for HRGEC, HCMEC, HHSEC and BBMEC, or 2 μg poly-L-lysin/cm^2 (Caltag SC-0403) for HRPTEpiC and HA, or 15 mL/flask 175 cm^2 gelatin-based solution (Cellbiologics) in the presence of endothelial cell supplemented growth medium ECM (P60104, INNOPROT, Caltag, SC-1001) for HRGEC, HCMEC, HHSEC, RPKGEC or BBMEC, or astrocyte cell supplemented growth medium AM (Caltag SC-1801) for HA or epithelial cell supplemented growth medium EpiCM (P60106, INNOPROT) for HRPTEpiC, at 37° C. under 5% CO2 and saturated humidity until their confluency. They are then harvested by trypsinization according to the method described by the supplier for exactly 5 minutes and then reseeded in new flasks a maximum of three times.
To carry out the oxygen and glucose deprivation test followed by their replenishment, the cells will be seeded in 96-well black plates with transparent flat bottom (GREINER). Once a sufficient number of cells has been obtained to allow seeding of 2000 to 15000 cells per well of 96-well plates depending on the cell type, the cells are seeded in these 96-well plates previously coated with an extracellular matrix as listed above for the flasks. The cells are cultured for 5 to 8 days according to the cell type, in the presence of the same growth medium as in the flask as described above except for HRGEC and HRPTEpiC for which DMEM (DUTSCHER) with 1 g/L of supplemented glucose is used, at 37° C. under 5% CO2 and saturated humidity to obtain confluency.
On the first day of oxygen and glucose deprivation, (5th, 6th, 7th or 8th day of culture), the culture conditions are drastically changed. The medium of all plates is removed and replaced by DMEM (DUTSCHER) medium without glucose and supplemented only with 1% penicillin-streptomycin (DUTSCHER). Anidulafungin or micafungin dissolved in dimethyl sulfoxide (DMSO) is then added to each well at the desired concentration, resulting in a maximum of 1% DMSO, and the plates are placed under hypoxia at <1% 02 and 5% CO2 at 37° C. for 24 hours of culture. Each compound was tested in a concentration range.
After 24 hours, the growth medium is changed and replaced by a richer medium, DMEM (DUTSCHER) at 1 g/L glucose and 2% FBS (INNOPROT) and 1% penicillin-streptomycin (DUTSCHER). These media will have been pre-equilibrated at 37° C. in advance. The cells are then returned to culture at 37° C. under 20% 02 and 5% CO2 for 22h.
After 22 hours of reoxygenation, the potential protective effect of anidulafungin or micafungin is measured by a cell viability test using calcein AM (CORNING), which is a dye substrate. The calcein AM can easily cross the cell membrane of the viable cells. The AM ester groups mask the part of the molecule that chelates calcium. Once inside the cells, the (non-fluorescent) calcein AM is hydrolyzed to (fluorescent) calcein by endogenous esterases. The resulting calcein molecule binds to calcium inside the cell and remains trapped inside the cell. These molecules emit strong green fluorescence when subjected to […] of a particular wavelength (495 nm). Since dead cells lack esterase activity, only living cells are labelled.
This cell viability test is performed in two steps. […]

CCCCCOc1ccc(-c2cc(-c3ccc(C(=O)N[C@H]4C[C@@H](O)[C@@H](O)NC(=O)[C@@H]5[C@@H](O)[C@@H](C)CN5C(=O)[C@H]([C@H](O)CC(N)=O)NC(=O)[C@H]([C@H](O)[C@@H](O)c5ccc(O)c(OS(=O)(=O)O)c5)NC(=O)[C@@H]5C[C@@H](O)CN5C(=O)[C@H]([C@@H](C)O)NC4=O)cc3)no2)cc1 [Micafungin, {5-[(1S,2S)-2-[(3S,6S,9S,11R,15S,18S,20R,21R,24S,25S,26S)-3-[(1R)-2-carbamoyl-1-hydroxyethyl]-11,20,21,25-tetrahydroxy-15-[(1R)-1-hydroxyethyl]-26-methyl-2,5,8,14,17,23-hexaoxo-18-[(4-{5-[4-(pentyloxy)phenyl]-1,2-oxazol-3-yl}benzene)amido]-1,4,7,13,16,22-hexaazatricyclo[22.3.0.0]heptacosan-6-yl]-1,2-dihydroxyethyl]-2-hydroxyphenyl}oxidanesulfonic acid] (X1-[Orn(4R-OH,5R-OH)]T[Hyp][hTyr(3S-OH,4S-OH,3'-OSO3H)][Gln(3R-OH)][Pro(3S-OH,4S-Me)]; lactam 1-C)
Globalfluo assay 1 ([Micafungin] log μM 0): 4455401 arbitrary units | Globalfluo assay 2 ([Micafungin] log μM 0): 4660836 arbitrary units | Globalfluo assay 3 ([Micafungin] log μM 0): 4639734 arbitrary units | Mean globalfluo ([Micafungin] log μM 0): 4585324 arbitrary units | Survival rate (%) ([Micafungin] log μM 0): −3% | Globalfluo assay 1 ([Micafungin] log μM 0.4771213): 5103911 arbitrary units | Globalfluo assay 2 ([Micafungin] log μM 0.4771213): 5348145 arbitrary units | Globalfluo assay 3 ([Micafungin] log μM 0.4771213): 4886218 arbitrary units | Mean globalfluo ([Micafungin] log μM 0.4771213): 5112758 arbitrary units | Survival rate (%) ([Micafungin] log μM 0.4771213): 0% | Globalfluo assay 1 ([Micafungin] log μM 0.7781513): 5452718 arbitrary units | Globalfluo assay 2 ([Micafungin] log μM 0.7781513): 4992821 arbitrary units | Globalfluo assay 3 ([Micafungin] log μM 0.7781513): 6254079 arbitrary units | Mean globalfluo ([Micafungin] log μM 0.7781513): 5566539 arbitrary units | Survival rate (%) ([Micafungin] log μM 0.7781513): 3% | Globalfluo assay 1 ([Micafungin] log μM 0.90309): 5299685 arbitrary units | Globalfluo assay 2 ([Micafungin] log μM 0.90309): 5787047 arbitrary units | Globalfluo assay 3 ([Micafungin] log μM 0.90309): 5397439 arbitrary units | Mean globalfluo ([Micafungin] log μM 0.90309): 5494724 arbitrary units | Survival rate (%) ([Micafungin] log μM 0.90309): 3% | Globalfluo assay 1 ([Micafungin] log μM 1): 5522064 arbitrary units | Globalfluo assay 2 ([Micafungin] log μM 1): 5305822 arbitrary units | Globalfluo assay 3 ([Micafungin] log μM 1): 6090892 arbitrary units | Mean globalfluo ([Micafungin] log μM 1): 5639593 arbitrary units | Survival rate (%) ([Micafungin] log μM 1): 3% | Globalfluo assay 1 ([Micafungin] log μM 1.079181): 5365305 arbitrary units | Globalfluo assay 2 ([Micafungin] log μM 1.079181): 5914359 arbitrary units | Globalfluo assay 3 ([Micafungin] log μM 1.079181): 4948085 arbitrary units | Mean globalfluo ([Micafungin] log μM 1.079181): 5409250 arbitrary units | Survival rate (%) ([Micafungin] log μM 1.079181): 2% | Globalfluo assay 1 ([Micafungin] log μM 1.176091): 5886475 arbitrary units | Globalfluo assay 2 ([Micafungin] log μM 1.176091): 5800515 arbitrary units | Globalfluo assay 3 ([Micafungin] log μM 1.176091): 6203727 arbitrary units | Mean globalfluo ([Micafungin] log μM 1.176091): 5963572 arbitrary units | Survival rate (%) ([Micafungin] log μM 1.176091): 5% | Globalfluo assay 1 ([Micafungin] log μM 1.30103): 6537106 arbitrary units | Globalfluo assay 2 ([Micafungin] log μM 1.30103): 5661218 arbitrary units | Globalfluo assay 3 ([Micafungin] log μM 1.30103): 6414894 arbitrary units | Mean globalfluo ([Micafungin] log μM 1.30103): 6204406 arbitrary units | Survival rate (%) ([Micafungin] log μM 1.30103): 7% | Globalfluo assay 1 ([Micafungin] log μM 1.477121): 5692141 arbitrary units | Globalfluo assay 2 ([Micafungin] log μM 1.477121): 6434487 arbitrary units | Globalfluo assay 3 ([Micafungin] log μM 1.477121): 7272557 arbitrary units | Mean globalfluo ([Micafungin] log μM 1.477121): 6466395 arbitrary units | Survival rate (%) ([Micafungin] log μM 1.477121): 8% | Globalfluo assay 1 ([Micafungin] log μM −0.5228788): 4445501 arbitrary units | Globalfluo assay 2 ([Micafungin] log μM −0.5228788): 5528681 arbitrary units | Globalfluo assay 3 ([Micafungin] log μM −0.5228788): 4443191 arbitrary units | Mean globalfluo ([Micafungin] log μM −0.5228788): 4805791 arbitrary units | Survival rate (%) ([Micafungin] log μM −0.5228788): −1% | Globalfluo assay 1 ([Micafungin] log μM −1): 4527783 arbitrary units | Globalfluo assay 2 ([Micafungin] log μM −1): 4062591 arbitrary units | Globalfluo assay 3 ([Micafungin] log μM −1): 5413646 arbitrary units | Mean globalfluo ([Micafungin] log μM −1): 4668007 arbitrary units | Survival rate (%) ([Micafungin] log μM −1): −2% | Globalfluo assay 1 ([Micafungin] log μM −2): 4648220 arbitrary units | Globalfluo assay 2 ([Micafungin] log μM −2): 3959524 arbitrary units | Globalfluo assay 3 ([Micafungin] log μM −2): 4368024 arbitrary units | Mean globalfluo ([Micafungin] log μM −2): 4325256 arbitrary units | Survival rate (%) ([Micafungin] log μM −2): −4%
